Values of other authors, collected in patent US10098846B2, “Drug-containing particulate composition with cationic agent, associated medical devices, and methods for treatment” (Surmodics, Inc., priority 2016, dated 2018).

In the case of `CO[C@H]1C[C@@H]2CC[C@@H](C)[C@@](O)(O2)C(=O)C(=O)N2CCCC[C@H]2C(=O)O[C@H]([C@H](C)C[C@@H]2CC[C@@H](O)[C@H](OC)C2)CC(=O)[C@H](C)/C=C(\C)[C@@H](O)[C@@H](OC)C(=O)[C@H](C)C[C@H](C)/C=C/C=C/C=C/1C` [Rapamycin, rapamycin], the “solubility in N,N-dimethylformamide” value (N,N-dimethylformamide) is listed as “soluble”, the solubility in acetone (acetone) is listed as “soluble” and the solubility in ether (ether) is listed as “soluble”. For the same molecule, the solubility in water (water) was “insoluble”.
